Data on one compound can be found in paper PMC12801355, “Peptide Amphiphiles Hitchhike on Endogenous Biomolecules for Enhanced Cancer Imaging and Therapy” (Advanced Materials (Deerfield Beach, Fla.), 2025).

Where a SMILES comes first, the peptide text is derived from it. The star is where a group is joined. Palmitoyl = CCCCCCCCCCCCCCCC(=O)*

Data set [1] is described as follows: Fluorescence polarization of PA nanostructures. Type of data set: physicochemical. The settings on record: 10 mol% ICG conjugated PA (20 µM) with unconjugated PA, 200 µM total, PBS; mean ± SEM, 3 wells. Here is the method:
ICG (10 mol%) containing PA micelles were prepared by mixing ICG‐conjugated PAs with unconjugated or MMAE‐conjugated PAs to achieve a final concentration of 20 µM ICG‐conjugated PAs and 200 µM of total PAs. Aliquots of 100 µL were added to a 96‐well plate (3 wells for each PA). Fluorescence polarization measurements were performed using a microplate reader (TECAN Spark 20 M). The corrected parallel intensity (I par) and perpendicular intensity (Iper) were used to calculate the fluorescence anisotropy (r) using the following equation: r = […].

A short description of data set [2]: ICG fluorescence in fractions of collected blood (plasma, WBC, RBC). It counts as in vivo. The following applies: mouse blood 1 h after 50 nmol IV; average.
The subject of data set [3] is 4T1 mouse breast cancer cells. Briefly: Cellular uptake of Cy5 labeled PAs. It counts as cell-based. The following applies: 10 µM Cy5‐PA, 2 h incubation at 37 °C. Here is the method: To compare the uptake of SA‐E and SA‐K, 1 × 10^5 4T1 cells were grown to near confluency (1–2 days) in 96 well plates with black walls and flat glass bottom. 100% Cy5 conjugated PAs (20 or 10 µM) or 10% Cy5 conjugated PA micelles (10 µM Cy5‐PAs mixed with 90 µM maleimide blocked labeled PAs) were preincubated in 10% FBS containing RPMI for 30 min at 37 °C, wells were aspirated, and 100 µL of media containing PAs were added. The plate was incubated for 30 min for the experiments with 100% Cy5 conjugated PAs. Media were aspirated, wells were washed 3x with 150 µL sterile PBS, and then 100 µL RPMI containing 10% FBS was added to each well. The plate was incubated for 1 h at 37 °C. For 10% and 100% Cy5 micelle uptake comparison, plate was incubated for 2 h at 37 °C with PAs. Then, media containing PAs were aspirated and washed with PBS, as above. Cell nuclei were stained with Hoechst (1:5000 dilution in PBS) for 5 min and then removed. 100 µL of phenol red free RPMI containing 10% FBS was added to each well. […] The microscope incubator was preheated for 30 min to reach 35 °C prior to imaging.
To study the uptake of SA‐E or SA‐K micelles (10% or 100% Cy5 micelles) or No‐SA over time, 4T1 cells were grown to near confluency in a 96 well plate as described above. Cy5 conjugated 100% Cy5 conjugated PAs (20 µM), 10% Cy5 conjugated PAs (10 µM Cy5), or No‐SA (20 µM) or were preincubated in 10% FBS containing RPMI for 30 min at 37 °C. Cell nuclei were stained with Hoechst stain as above. Cell membranes were stained (CellBrite 488, 1:1000 in 10% FBS containing RPMI) for 30 min at 37 °C. Wells were aspirated, and 100 µL of PAs were added to the wells for ≈1 min. Wells were washed with sterile PBS (3x, 150 µL), and Confocal images were taken at different time points (up to 2 h) after PA or No‐SA addition as described above using a 60x objective.

Data set [4] deals with TRAMP‐C2 mouse prostate cancer cells. Briefly: Uptake of SA‐E by wild type or SR‐B1 knockout cells. Type of data set: cell-based. The settings on record: Cy5 SA‐E 20 µM, 10% FBS DMEM. Here is the method:
For SR‐B1 studies, an equal number of wells in a black walled, glass bottom 96‐well plate were seeded with either wild type or SR‐B1‐/‐ TRAMP‐C2 cells and grown to near confluency, as above. The Cy5 conjugated SA‐E was diluted in 10% FBS containing DMEM and incubated at room temperature for 30 min. All media from the wells was aspirated. Four wells of each cell type received 100 µL aliquots with SA‐E (20 µM). The plate was incubated for 30 min, as above. Following the methods above, wells were washed with PBS, media was added, and the plate was returned to the incubator for 1 h. Finally, Hoechst staining and fluorescence imaging were performed using a Leica Thunder DMi8 fluorescent microscope, as described above.

Data set [5] has as its system HeLa human cervical cancer cells. Briefly: Uptake of SA‐E by wild type or LDL‐R knockout cells. It counts as cell-based. The following applies: Cy5 SA‐E 20 µM, 10% FBS DMEM. Here is the method:
For LDL‐R studies, 2 × 10^5 wild type or LDL‐R‐/‐ HeLa human cervical cancer cells were grown to near confluency in 96 well plates with black walls and flat glass bottom. Cy5 conjugated SA‐E (20 µM) was preincubated in DMEM containing 10% FBS for 30 min at 37 °C. Wells were aspirated, and 100 µL of the SA‐E containing DMEM was added. The plate was incubated for 30 min, as above. The wells were washed with sterile PBS, as above, media was added, and the plate was returned to the incubator for 1 h. Wells were aspirated, and nuclei were stained with Hoechst as above. Wells were aspirated, and 100 µL of phenol red free DMEM with 10% FBS was added to each well. Cells were then imaged for Cy5 conjugated SA‐E with a Zeiss Apotome 3 microscope at 20x and 63x objectives using Zen software.

For another data set, the system named is 4T1 tumor. Briefly: Biodistribution in tumor‐bearing mice. Type of data set: in vivo, mouse. The settings on record: 4T1, 2 days after 50 nmol IV, tissue homogenates, plate reader, mean ± SEM. Here is the method:
For biodistribution studies in 4T1 and MC38 tumor models in wild type, ApoA1 ‐/‐, or LDL‐R ‐/‐ mice, 100 µL of ICG conjugated PAs or free ICG (0.5 mM) were intravenously injected. 2 days after injection, the mice were euthanized, and tumors and organs were excised and analyzed in the IVIS (PerkinElmer) for ICG.
To determine the percentage of the injected dose of SA‐E in tissues, 4T1 tumor, spleen, kidney, lung, and colon tissues were harvested from 5 mice 2 days after ICG conjugated SA‐E (IV, 100 µL, 0.5 mM). Organ weights were measured for normalization. Tissues were homogenized in gentleMACS M Tube containing 1 mL of PBS and equipped with a 600 µm mesh strainer using a gentleMACS dissociator as described above. The resulting tissue homogenates were transferred into a 96‐well plate for fluorescence measurement using a microplate reader (TECAN Spark 20 M). Additionally, organ tissues from healthy mice without probe injection were harvested and homogenized to prepare calibration curves. ICG conjugated SA‐E was spiked into tissue samples at different concentrations, and fluorescence intensities were measured using a microplate reader (TECAN Spark 20 M). For biodistribution studies with 10 mol% ICG containing micelles, ICG conjugated PAs were mixed with maleimide blocked PAs to achieve a final concentration of 0.25 mM ICG conjugated PAs and 2.5 mM total peptides. […]

Data set [6] relates to LPs (HDL, LDL, VLDL) and albumin in pooled human plasma.
Description: FPLC experiments were performed using SA‐E, SA‐K, or No‐SA conjugated with ICG or SA‐E conjugated with MMAE at a final concentration of 250 µM in filtered PBS (10 mM, pH 7.4) with or without human plasma or purified LPs or albumin. For analysis of SA‐E interactions with purified LPs, VLDL, LDL, HDL, and human serum albumin were diluted in filtered PBS to approximate concentrations found in 10% human plasma: 0.0025, 0.13, 0.05, and 5mg mL^−1, respectively. SA‐E was incubated with the purified LP/protein mixture for 30 min at 37 °C before injection. For analysis of plasma interactions, PAs or No‐SA were incubated in PBS containing 10% pooled human plasma for 30 min at 37 °C before injection. The total volume injected for all samples was 400 µL. All data was collected on an ÄKTA pure chromatography system using the following running conditions: size exclusion chromatography on a Superose 6 Increase 10/300 GL column with a column volume (CV) of 30 mL, pre‐column pressure limit of 5 MPa, delta‐column pressure limit of 2.6 MPa, flow rate of 0.75 mL min^−1, in 100% PBS. The sample running method included first an equilibration step before injection of the sample with 100% PBS for 0.5 CV, followed by sample application via 1 mL capillary loop in 100% PBS, and finished with a linear elution consisting of 2 CV collected in 1 mL fractions. The UV‐Vis detector wavelengths were 250, 280, and 700 nm to detect MMAE, all proteins/LPs, and ICG, respectively.

On to `CCCCCCCCCCCCCCCC(=O)NCC(=O)NCC(=O)NCC(=O)N[C@@H](Cc1c[nH]cn1)C(=O)N[C@@H](C)C(=O)N[C@@H](C)C(=O)N[C@@H](CC(N)=O)C(=O)NCC(=O)N[C@@H](CCC(=O)O)C(=O)N[C@@H](CCC(=O)O)C(=O)N[C@@H](CS)C(=O)N[C@@H](CCC(=O)O)C(=O)O` [SA‐E] (Palmitoyl-GGGHAANGEECE-OH), for which the “fluorescence anisotropy of ICG in micelles” value in data set [1] stood at 0.123 ± 0.006. Besides, the “share of fluorescence in blood plasma” value in data set [2] was 98.9%. For the same compound, in data set [3], the “uptake of 10% Cy5 micelles relative to 100% Cy5 micelles” value is reported as “no significant difference”. For the same compound, the “uptake in SR‐B1‐/‐ cells compared to wild type” value in data set [4] was “did not observe any significant change”. In addition, the “uptake in LDL‐R‐/‐ cells compared to wild type” value in data set [5] is “did not observe any significant change”. The “concentration in the tumor” value in the data set on 4T1 tumor (5 mice) is 1.9% ± 0.4 %ID / g tissue. In the data set with 4T1 tumor, the concentration in liver is 0.8% ± 0.1 %ID / g tissue. Also, in data set [6], the “amount bound to albumin, lower than bound to HDL” value is “approximately two‐fold”.
